From ChEMBL document CHEMBL3301361, “Experimental in vitro DMPK and physicochemical data on a set of publicly disclosed compounds”
Converted amounts (≈) assume the structure as drawn.

assay: physchem; settings: pH 7.4 buffer

Row | SMILES | solubility thermodynamic [µM]
1 | N#CC1(NC(=O)[C@@H]2CCCC[C@H]2C(=O)N2CCc3[nH]c4ncccc4c3C2)CC1 | 1510 (≈ 593 µg/mL)
2 | O=C(Nc1nccs1)[C@H](CC1CCOCC1)c1ccc(S(=O)(=O)C2CC2)cc1 | 295 (≈ 124 µg/mL)
3 | O=c1cc(-c2cccc3c2Sc2ccccc2S3)oc(N2CCOCC2)c1 [KU-55933] | 7.1 (≈ 2.81 µg/mL)
4 | CCN(C(=O)Cc1ccc(S(C)(=O)=O)cc1)C1CCN(CC[C@@H](c2ccccc2)C2CCN(S(=O)(=O)C(F)(F)F)CC2)CC1 | 56.2 (≈ 37 µg/mL)
5 | CC(=O)N1CCN(CC(O)CN2CCN(CCc3c(-c4cc(C)cc(C)c4)[nH]c4sc(C(C)(C)C(=O)N5C6CCC5CC6)cc34)CC2)CC1 (configuration not stated) | 214 (≈ 147 µg/mL)
6 | CCc1cc(NC(=O)Cc2ccc(Oc3ccnc4cc(OC)ccc34)cc2OC)n[nH]1 | 8.5 (≈ 3.68 µg/mL)
7 | COc1ccc(NC(=O)c2cccn(CC=C(C)C)c2=O)cc1 | 7.2 (≈ 2.25 µg/mL)
8 | CCC(C)(C)NC(=O)Cc1ccc(C)cc1 | 240 (≈ 52.6 µg/mL)
9 | COc1cc(N2CCN(C(C)=O)CC2)ccc1Nc1ncc(Cl)c(-c2cnc3ccc(F)cn23)n1 | 1.3 (≈ 0.645 µg/mL)
10 | C[C@@H](Oc1cccc2ncnc(Nc3ccc4c(cnn4Cc4cscn4)c3)c12)C(=O)N(C)C | 43.7 (≈ 20.7 µg/mL)
11 | CC(=O)N1CCC(n2cc(-c3cnc(N)c(-c4nc5ccccc5o4)c3)cn2)CC1 | 1.7 (≈ 0.684 µg/mL)
12 | Cn1cc(C2=C(c3cccc(NCC(O)CO)c3)C(=O)NC2=O)c2cc(F)ccc21 (configuration not stated) | 4.4 (≈ 1.8 µg/mL)
13 | COCCN(C)C(=O)[C@@H](C)Oc1cccc2ncnc(Nc3ccc(Oc4ccc(C)nc4)c(C)c3)c12 | 11.2 (≈ 5.62 µg/mL)
14 | COc1ccc(C(=O)Nc2nccs2)cc1OC | 132 (≈ 34.8 µg/mL)
15 | Cc1[nH]c2ccccc2c1CC#N | 1020 (≈ 174 µg/mL)
16 | Cc1cc(C)cc(-c2[nH]c3sc(C(C)(C)C(=O)N4C5CCC4CC5)cc3c2CCN2CCC(C(=O)N3CCCC(O)C3)CC2)c1 (configuration not stated) | 87.1 (≈ 55 µg/mL)
17 | Nc1nnc(Cc2ccccc2)s1 | 1200 (≈ 230 µg/mL)
18 | O=C(Cc1ccccc1)Nc1ccc(N2CCCC2)cc1 | 1.1 (≈ 0.308 µg/mL)
19 | COCCNS(=O)(=O)c1ccc(Nc2nccc(-c3cnc(C)n3C(C)C)n2)cc1 | 363 (≈ 156 µg/mL)
20 | CC(C)c1c(C(=O)NC2C3CC4CC(C3)CC2C4)cnn1-c1ccc(C(=O)O)cc1 (configuration not stated) | 224 (≈ 91.2 µg/mL)
21 | COc1ccc2[nH]c(=O)c3c(c2c1)OC(C)(C)C=C3 [HAPLAMINE] | 87.1 (≈ 22.4 µg/mL)
22 | CC(C)Oc1cc(O[C@@H](C)c2ccccc2)cc(C(=O)Nc2ccc(C(=O)O)cn2)c1 | 89.1 (≈ 37.5 µg/mL)

Row | SMILES | solubility thermodynamic [µM]
23 | O=C(Nc1ccc(N2CCOCC2)nc1)c1nnc(Nc2ccc(Cl)cc2)o1 | 1 (≈ 0.401 µg/mL)
24 | CCc1c[nH]nc1NC(=O)Cc1ccc(Oc2ccnc3cc(OC)ccc23)cc1OC | 7.4 (≈ 3.2 µg/mL)
25 | O=S(=O)(Cc1cc(-c2ccccc2)no1)c1ccccc1 | 6.6 (≈ 1.98 µg/mL)
26 | N#CC1(NC(=O)[C@@H]2CCCC[C@H]2C(=O)N2CCc3[nH]c4c(OC(F)(F)F)cccc4c3C2)CC1 | 123 (≈ 58.4 µg/mL)
27 | Cc1cc(C)cc(-c2[nH]c3sc(C(C)(C)C(=O)N4C5CCC4CC5)cc3c2CCN2CCN(CC(O)CN3CCNCC3)CC2)c1 (configuration not stated) | 427 (≈ 276 µg/mL)
28 | CCc1cc(NC(=O)Cc2ccc(Oc3ccnc4cc(OC)ccc34)cc2OC)no1 | 4.2 (≈ 1.82 µg/mL)
29 | COc1ccc(/C=C\c2cc(OC)c(OC)c(OC)c2)cc1O [COMBRETASTATIN A4] | 144 (≈ 45.7 µg/mL)
30 | Cc1cc(C)cc(-c2[nH]c3sc(C(C)(C)C(=O)N4C5CCC4CC5)cc3c2CCN2CCC(CNC(=O)N3CCOCC3)CC2)c1 | 112 (≈ 72.5 µg/mL)
31 | O=C(N[C@@H](Cc1ccccc1)C(=O)N1CCC(O)CC1)c1cc2cc(Cl)ccc2[nH]1 | 5.1 (≈ 2.17 µg/mL)
32 | COC[C@H](C)Oc1cc(O[C@@H](C)Cc2ccc(F)cc2)cc(C(=O)Nc2ccc(C(=O)O)cn2)c1 | 1260 (≈ 607 µg/mL)
33 | Cc1ccc(NC(=O)c2ccnc(N3CCOCC3)c2)cc1-n1c(C)nc2ccc(N3CCN(C)CC3)cc2c1=O | 851 (≈ 471 µg/mL)
34 | COc1cc2ncnc(Nc3cccc(Cl)c3F)c2cc1CN(C)C1(C(N)=O)CCN(C(C)C)CC1 | 550 (≈ 283 µg/mL)
35 | O=S(=O)(c1ccc(N2CCC(c3ccc(Cl)cc3)=N2)cc1)N(CCO)CCO | 2.2 (≈ 0.933 µg/mL)
36 | COc1cc2ncnc(Nc3ccc(C)c(O)c3)c2cc1OC | 4.4 (≈ 1.37 µg/mL)
37 | CCCCOc1ccc(-c2cc(=O)c3ccccc3[nH]2)cc1 | 1.6 (≈ 0.469 µg/mL)
38 | COc1ccc(NC(=O)c2cc(C)no2)cc1 | 158 (≈ 36.8 µg/mL)
39 | Cc1cccc(C)c1NC(=O)N1CCC(C(=O)c2ccc(F)cc2)CC1 | 18.6 (≈ 6.59 µg/mL)
40 | Cc1noc(C)c1CCC1CCN(S(=O)(=O)CC2(N(O)C=O)CCOC(C)(C)C2)CC1 (configuration not stated) | 851 (≈ 389 µg/mL)
41 | CNC(=O)[C@@H](C)Oc1cccc2ncnc(Nc3ccc(OCc4ccccn4)c(Cl)c3)c12 | 1.6 (≈ 0.742 µg/mL)
42 | CC(C)Oc1cc(O[C@H](C)Cc2ccccc2)cc(C(=O)Nc2ccc(C(=O)O)cn2)c1 | 8.5 (≈ 3.69 µg/mL)
43 | C[C@H](Oc1cccc2ncnc(Nc3ccc4c(cnn4Cc4ccccn4)c3)c12)C(=O)N1CCOCC1 | 166 (≈ 84.6 µg/mL)
44 | COc1cnc(Cl)c(Nc2ncnc3cc(OCCN4CCN(C(C)=O)CC4)cc(OC(C)C)c23)n1 | 22.4 (≈ 11.6 µg/mL)

assay: physchem; settings: octan-1-ol/water, pH 7.4

Row | SMILES | logD
45 | Cc1ccc(CN2[C@@H]3CC[C@H]2C[C@H](Oc2cccc(C(N)=O)c2)C3)s1 | 2.44
46 | N#Cc1cccc(-c2ccc(C3(CNC(=O)Nc4cc(Cl)cc(Cl)c4)CCN(CC4CC4)CC3)cc2)c1 | 3.37
47 | NC(=O)c1cccc(O[C@H]2C[C@H]3CC[C@@H](C2)N3Cc2ccccc2)c1 | 1.61

same assay, conditions: octan-1-ol/water, pH 7.4, LogD7.4

Row | SMILES | logD
48 | COc1ccc(OC)c(-c2cccc3c(N)c(C(=O)NC(C)C)nnc23)c1 | 3.65
49 | Fc1ccc(C2CCN(C(=S)COCc3ccncc3)CC2)c(Cl)c1 | 4.23
50 | COc1ccc(Cl)cc1C(=O)Nc1nc2ccccc2[nH]1 | 4.05
51 | Nc1ncccc1NCc1cccc(-c2cccnc2)c1 | 3
52 | CN(C(=O)Cc1ccc(C#N)cc1)C1CCN(CCC(c2ccccc2)c2ccccc2)CC1 | 3.7
53 | Cn1cncc1-c1c2c(=O)n(C)c(=O)n(CC3CC3)c2nn1Cc1ccnc2ccc(Cl)cc12 | 2.69
54 | Cc1cc2n[nH]c(=O)n2c2cc(-c3ccncc3)ccc12 | 2.29
55 | Oc1ccc(C2=Cc3ccc(O)cc3OC2)cc1 [IDRONOXIL] | 3.8
56 | Cc1ncccc1Oc1ncnc(OC2C3COCC2CN(C(=O)OC(C)C)C3)c1C (configuration not stated) | 3.1
57 | CC(C)C(NC(=O)Cn1c(-c2ccccc2)ccc(N)c1=O)C(=O)C(F)(F)F (configuration not stated) | 1.74
58 | CCn1c(=O)c2c(=O)cc(O)oc2c2ccccc21 | 1.13
59 | CC(=O)N[C@H](C)c1ccc(Nc2ncc3cc(-c4ccncc4)ccc3n2)cc1 | 3.18
60 | CCCc1cc(OCc2ccccc2)cc(=O)n1Cc1ccc(-c2ccccc2-c2nn[nH]n2)cc1 | 2.4
61 | CNC[C@H](O)c1ccc(Cl)c(C(=O)NCC23CC4CC(CC(C4)C2)C3)c1 | 1.41
62 | CC(=O)Nc1cc2c(ccn2-c2cc(NC3CC3)n3ncc(C#N)c3n2)cc1C | 2.66
63 | COc1cc2nnc(C(N)=O)c(Nc3ccc(C)cc3F)c2cc1N1CCN(C)CC1 | 2.36
64 | O=C(NC1Cc2ccccc2N(CCO)C1=O)c1cc2cc(Cl)sc2[nH]1 (configuration not stated) | 3.05
65 | CC(C)C(NC(=O)Cn1c(-c2ccccc2)ccc(NC(=O)NCc2cc[n+]([O-])cc2)c1=O)C(=O)C(F)(F)F (configuration not stated) | 1.13
66 | Nc1ncnc2sccc12 | 1.19
67 | NC(N)=Nc1nc(CSCCC(N)=NS(N)(=O)=O)cs1 [FAMOTIDINE] | -0.6
68 | Clc1ccc2[nH]ncc2c1 | 2.44
69 | CC(C)C(NC(=O)Cn1c(-c2ccccc2)ccc(NS(C)(=O)=O)c1=O)C(=O)C(F)(F)F (configuration not stated) | 1.77
70 | N#Cc1ccc(S(=O)(=O)NCC(c2ccccc2)N2CCCCCC2)cc1 (configuration not stated) | 2.86
71 | Cn1ncnc1-c1c2c(=O)n(C)c(=O)n(CC3CC3)c2nn1Cc1ccnc2ccc(Cl)cc12 | 3.8
72 | O=C(OCC(O)CO)c1ccccc1Nc1ccnc2cc(Cl)ccc12 (configuration not stated) [GLAFENINE] | 3.5

Row | SMILES | logD
73 | CN1CCCN(C(c2ccccc2)c2ccc(Cl)cc2)CC1 (configuration not stated) [HOMOCHLORCYCLIZINE] | 2.36
74 | CNc1c(Br)cnc2nc(-c3ccc(OCCCN4CCOCC4)cc3)[nH]c12 | 2.96
75 | Cc1ccn2c(-c3ccnc(N)n3)c(C)nc2c1 | 2.39
76 | CS(=O)(=O)Nc1cc(Nc2nccc(Nc3c(Cl)ccc4c3OCO4)n2)cc(C(N)=O)c1 | 2.28
77 | Fc1ccc(C(COCc2cc(C(F)(F)F)cc(C(F)(F)F)c2)N2CCNCC2)cc1 (configuration not stated) | 3
78 | Cc1oc(S(C)(=O)=O)cc1-c1c2c(=O)n(C)c(=O)n(CC3CC3)c2nn1Cc1cn(C)c2ccc(Cl)cc12 | 4.48
79 | CCCc1c(OCCCSc2ccc(CC(=O)O)cc2Cl)ccc2c(CC)noc12 [L-165461] | 3.92
80 | O=S(=O)(c1ccccc1)C1(c2cc(N3CCOCC3)nc(-c3cccc4[nH]ccc34)n2)CC1 | 3.4
81 | O=c1[nH]c2c(O)ccc([C@@H](O)CNCCc3cccc(CNCc4ccccc4F)c3)c2s1 | 0.69
82 | COC(Cn1c(=O)[nH]c2c(=O)n(CC(=O)NC(C(=O)C(F)(F)F)C(C)C)c(-c3ccccc3)cc2c1=O)OC (configuration not stated) | 1.56
83 | Cc1ccc(NC(=O)c2ccnc(N3CCOCC3)c2)cc1Nc1ccnc(OCCCN(C)C)n1 | 1.3
84 | O=c1c2ccccc2nc2n1CCO2 | 0.6
85 | CC(C)Cn1c(=O)n(C)c(=O)c2c(C(=O)N3CC[C@@H](O)C3)c(Cc3cncc4ccccc34)sc21 | 1.74
86 | CCC1(c2ccccc2)NC(=O)N(C)C1=O (configuration not stated) [MEPHENYTOIN] | 1.59
87 | C[C@H]1CCCN1CCc1cc2cc(-c3ccc(C#N)cc3)ccc2o1 | 3.25
88 | O=C(O)Cc1csc(-c2ccc(Cl)cc2)n1 [FENCLOZIC ACID] | -0.22
89 | N#Cc1ccc(OCC(=O)O)c(-c2ccccc2)c1 | -1.08
90 | COCCNCc1cncc(-c2ccc(F)cc2OC)n1 | 1.61
91 | CNC(=O)c1ccc(Nc2nccc(-c3cnc(C)n3C(C)C)n2)cc1F | 2.95
92 | C[C@@H](NC(=O)[C@H]1CCCNC1)c1ccc(Nc2ncc3cc(-c4ccncc4)ccc3n2)cc1 | 1.69
93 | COc1cc2ncnc(Nc3cc(Cl)ccc3F)c2cc1OCCCN1CCOCC1 | 3.4
94 | O=c1oc2ccccc2cc1-c1ccccc1 | 3.22
95 | Nc1ccc2ncnc(Nc3ccc(F)c(Cl)c3)c2c1 | 2.64
96 | CC(C)(CS(=O)(=O)N1CCN(c2ccc(F)cc2)CC1)N(O)C=O | 1.07
97 | COc1ccc(Oc2cccc(CN3CCCC(n4cc(C)c(=O)[nH]c4=O)C3)c2)cc1 (configuration not stated) | 3.17
